Patent publication US11465987B2, “Compounds for treatment of cancer” (ONCTERNAL THERAPEUTICS, INC., priority 2012, dated 2022)
Like-named read-outs stand apart in the source and are kept apart here.

Columns and labels:
[1] = Pharmacokinetic study in Sprague-Dawley rats; details: rat, oral
[2] = test system: WM-164 human melanoma cell line; experiment: Cytotoxicity (SRB) assay, WM-164; type: cell-based; details: Homo sapiens, WM164, Table 11; read-out: IC50, WM164
[3] = test system: PPC-1 human prostate cancer cell line; experiment: Cytotoxicity (SRB) assay, PPC-1; type: cell-based; details: Homo sapiens, PPC-1, Table 11; read-out: IC50, PPC-1
Description: (§1) Cells were stained with SRB solution.

[4] = test system: DU 145 human prostate cancer cell line; experiment: Cytotoxicity (SRB) assay, DU 145; type: cell-based; details: Homo sapiens, DU-145, Table 11; read-out: IC50, Du 145
Description: as §1

[5] = test system: melanoma and prostate cancer cell lines; experiment: Antiproliferative activity summarised over the cell line panel (range or average); type: cell-based; details: Tables 11-13; read-out: IC50 (average of all seven cell lines)
[6] = test system: LNCaP human prostate cancer cell line; experiment: Cytotoxicity (SRB) assay, LNCaP; type: cell-based; details: Homo sapiens, LNCaP, Table 11; read-out: IC50, LNCaP
Description: as §1

[7] = test system: A375 human melanoma cell line; experiment: Cytotoxicity (SRB) assay, A375; type: cell-based; details: Homo sapiens, A-375, Table 11; read-out: IC50, A375
[8] = test system: B16-F1 mouse melanoma cell line; experiment: Cytotoxicity (SRB) assay, B16-F1; type: cell-based; details: Mus musculus, B16-F1, Table 11; read-out: IC50, B16-F1
[9] = test system: PC-3 human prostate cancer cell line; experiment: cells; details: read-out: IC50, PC-3; Table 11
Description: as §1

[10] = test system: MDA-MB-435/LCCMDR1 multidrug-resistant melanoma cells; experiment: Cytotoxicity (SRB) assay, MDA-MB-435/LCCMDR1; type: cell-based; details: for IC50: Homo sapiens
[11] = test system: MDA-MB-435 parental nonresistant melanoma cells; experiment: Cytotoxicity (SRB) assay, MDA-MB-435; type: cell-based; details: Homo sapiens, Table 14C, melanoma cells, read-out: IC50 ± SEM MDA-MB-435
[12] = test system: PC-3 xenograft; experiment: In vivo PC-3 prostate tumor xenograft; details: PC-3, 50 mg/kg i.p. daily; control 680 mm^3

increased exposure (AUC) by the oral route compared to 1h [1]	IC50 [5]	IC50 [9]	Compound	IC50 [2]	IC50 [3]	IC50 [4]	IC50 [6]	IC50 [7]	IC50 [8]	IC50 ([10]; MDA-MB-435/LCCMDR1, read-out: IC50 MDR melanoma cell line)	resistance index ([10]; MDA-MB-435/LCCMDR1 vs MDA-MB-435)	IC50 ([10]; Table 14C, melanoma cells, read-out: IC50 ± SEM MDA-MB-435/LCC-6MDR1)	IC50 [11]	tumor volume at day 21 [12]
more than 4.3 fold	–	–	COc1cc(C(=O)c2csc(Nc3ccc(F)cc3)n2)cc(OC)c1OC.Cl [5Hc, (2-(p-fluorophenylamino)thiazol-4-yl)(3,4,5-trimethoxyphenyl)methanone hydrochloride salt]	–	–	–	–	–	–	–	–	–	–	–
–	> 10 µM	> 10 µM	O=S(=O)(c1ccccc1)n1ccnc1-c1ccccc1 [10a, 2-phenyl-1-(phenylsulfonyl)-1H-imidazole]	> 10 µM	> 10 µM	> 10 µM	> 10 µM	> 10 µM	> 10 µM	–	–	–	–	–
–	> 10 µM	> 10 µM	O=S(=O)(c1ccccc1)n1ccnc1-c1ccc(OCc2ccccc2)cc1 [10j, 2-(4-(benzyloxy)phenyl)-1-(phenylsulfonyl)-1H-imidazole]	> 10 µM	> 10 µM	> 10 µM	> 10 µM	> 10 µM	> 10 µM	–	–	–	–	–
–	> 10 µM	> 10 µM	O=[N+]([O-])c1ccc(-c2nccn2S(=O)(=O)c2ccccc2)cc1 [10x, 2-(4-nitrophenyl)-1-(phenylsulfonyl)-1H-imidazole]	> 10 µM	> 10 µM	> 10 µM	> 10 µM	> 10 µM	> 10 µM	–	–	–	–	–
–	–	–	O=C(c1ccc(F)cc1)c1cn(S(=O)(=O)c2ccccc2)c(-c2ccc(Cl)cc2)n1 [11fb, (2-(4-chlorophenyl)-1-(phenylsulfonyl)-1H-imidazol-4-yl)(4-fluorophenyl)methanone]	–	–	–	–	–	–	0.035 µM	0.7	–	–	–
–	> 10 µM	> 10 µM	COc1cc(C(=O)n2ccnc2-c2ccccc2)cc(OC)c1OC [12aaa, (2-phenyl-1H-imidazol-1-yl)(3,4,5-trimethoxyphenyl)methanone]	> 10 µM	> 10 µM	> 10 µM	> 10 µM	> 10 µM	> 10 µM	–	–	–	–	–
–	> 10 µM	> 10 µM	COc1ccc(C(=O)n2ccnc2-c2ccccc2)cc1 [12aba, (4-methoxyphenyl)(2-phenyl-1H-imidazol-1-yl)methanone]	> 10 µM	> 10 µM	> 10 µM	> 10 µM	> 10 µM	> 10 µM	–	–	–	–	–
–	> 10 µM	> 10 µM	COc1ccc(C(=O)c2c[nH]c(-c3ccccc3)n2)cc1OC [12ae, (3,4-dimethoxyphenyl)(2-phenyl-1H-imidazol-4-yl)methanone]	> 10 µM	> 10 µM	> 10 µM	> 10 µM	> 10 µM	> 10 µM	–	–	–	–	–
–	> 10 µM	> 10 µM	O=C(c1cccc(F)c1)c1c[nH]c(-c2ccccc2)n1 [12ag, (3-fluorophenyl)(2-phenyl-1H-imidazol-4-yl)methanone]	> 10 µM	> 10 µM	> 10 µM	> 10 µM	> 10 µM	> 10 µM	–	–	–	–	–
–	–	–	COc1cc(Cc2nc(-c3ccccc3)c(-c3ccccc3)[nH]2)cc(OC)c1OC [102 e, 4,5-Diphenyl-2-(3,4,5-trimethoxybenzyl)-1H-imidazole]	–	–	–	–	–	–	–	–	> 50 µM	> 50 µM	–
–	–	–	O=C(c1ccc2[nH]ccc2c1)c1csc(-c2cc3ccccc3[nH]2)n1 [compound 21, (2-(1H-indol-2-yl)thiazol-4-yl)(1H-indol-5-yl)methanone]	–	–	–	–	–	–	–	–	–	–	331 mm^3
